According to patent publication US20250230193A1, “CYCLIC COMPOUND HAVING SELECTIVE KRAS INHIBITORY EFFECT ON HRAS AND NRAS” (CHUGAI SEIYAKU KABUSHIKI KAISHA, priority 2022, published 2025):
Where a SMILES comes first, the peptide text is derived from it. Bridges are numbered along the chain shown (N, C = ends). [ ]: non-standard residue; d: D form. The star is where a group is joined. hPhe(3,5-F2-4-CF3) = N[C@@H](CCc1cc(F)c(C(F)(F)F)c(F)c1)C(=O)O; hPhe(3-Cl-4-CF3) = N[C@@H](CCc1ccc(C(F)(F)F)c(Cl)c1)C(=O)O; NPrPhe(4-CF3) = CCCN[C@@H](Cc1ccc(C(F)(F)F)cc1)C(=O)O; NMeGly(cPent) = CN[C@H](C(=O)O)C1CCCC1; Hyp = O=C(O)[C@@H]1C[C@@H](O)CN1; NMeD = CN[C@@H](CC(=O)O)C(=O)O; NMeL = CN[C@@H](CC(C)C)C(=O)O; αMeV = CC(C)[C@](C)(N)C(=O)O; Morpholide = C1CN(*)CCO1; Ac5c = NC1(C(=O)O)CCCC1; Aze = O=C(O)[C@@H]1CCN1; Sar = CNCC(=O)O

Tests used:
[1] = target: GDP-bound NRAS wild-type protein (Homo sapiens, UniProt P01111); experiment: Binding to NRAS by surface plasmon resonance (SPR), Single Cycle Kinetics; details: SPR; for NRAS/KRAS (ratio of KD value with respect to NRAS to KD value with respect to KRAS): GDP-bound NRAS wild-type vs GDP-bound KRAS wild-type
Sequence of GDP-bound NRAS wild-type protein (P01111 whole entry): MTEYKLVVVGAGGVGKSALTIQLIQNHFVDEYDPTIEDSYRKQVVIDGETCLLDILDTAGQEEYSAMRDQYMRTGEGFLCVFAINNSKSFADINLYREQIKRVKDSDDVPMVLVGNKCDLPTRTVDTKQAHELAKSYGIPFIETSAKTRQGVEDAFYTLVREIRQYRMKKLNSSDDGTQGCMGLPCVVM

[2] = target: GDP-bound HRAS wild-type protein (Homo sapiens, UniProt P01112); experiment: Binding to HRAS by surface plasmon resonance (SPR), Single Cycle Kinetics; details: SPR; for HRAS/KRAS (ratio of KD value with respect to HRAS to KD value with respect to KRAS): GDP-bound HRAS wild-type vs GDP-bound KRAS wild-type
Sequence of GDP-bound HRAS wild-type protein (P01112 whole entry): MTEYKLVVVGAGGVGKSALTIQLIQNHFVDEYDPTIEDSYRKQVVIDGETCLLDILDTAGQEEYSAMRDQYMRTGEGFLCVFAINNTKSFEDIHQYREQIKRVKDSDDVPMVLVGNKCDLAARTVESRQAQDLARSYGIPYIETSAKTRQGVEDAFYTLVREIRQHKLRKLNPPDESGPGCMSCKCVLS

Compound: CCCN1C(=O)CN(C)C(=O)[C@@H]2CCN2C(=O)[C@H]([C@@H](C)CC)NC(=O)[C@H](CC(C)C)N(C)C(=O)C[C@@H](C(=O)N(C)C)N(C)C(=O)[C@H](C2CCCC2)N(C)C(=O)C2(CCCC2)NC(=O)[C@@H]2C[C@@H](OCC)CN2C(=O)[C@H](CCc2ccc(C(F)(F)F)c(Cl)c2)NC(=O)CN(C)C(=O)[C@@H]1Cc1ccc(C(F)(F)F)cc1 [PP0433] ([NMeL]I[Aze][Sar][NPrPhe(4-CF3)][Sar][hPhe(3-Cl-4-CF3)][Hyp](Et)[Ac5c][NMeGly(cPent)][NMeD]-NMe2; lactam N-11)
- NRAS/KRAS (ratio of KD value with respect to GDP-bound NRAS wild-type protein to KD value with respect to KRAS) [1]: B (a compound having 3 or more and less than 10 is denoted as B)
- HRAS/KRAS (ratio of KD value with respect to GDP-bound HRAS wild-type protein to KD value with respect to KRAS) [2]: B (a compound having 3 or more and less than 10 is denoted as B)

Compound: CCO[C@@H]1C[C@H]2C(=O)NC3(CC(C)(C)C3)C(=O)N(C)[C@@H](C(CC)CC)C(=O)N(C)[C@H](C(=O)N(C)C)CC(=O)N(C)[C@H]3CCCC/C=C/c4ccc(cc4)C[C@@H](C(=O)N(C)CC(=O)N[C@@H](CCc4ccc(Cl)c(Cl)c4)C(=O)N2C1)N1CC/C=C\C[C@@H](C1=O)N(C)C(=O)CN(C)C(=O)[C@H]([C@@H](C)CC)NC3=O [PP3045]
- NRAS/KRAS (ratio of KD value with respect to GDP-bound NRAS wild-type protein to KD value with respect to KRAS) ([1]; GDP-bound wild-type proteins): AA (a compound having 20 or more is denoted as AA)
- HRAS/KRAS (ratio of KD value with respect to GDP-bound HRAS wild-type protein to KD value with respect to KRAS) ([2]; GDP-bound wild-type proteins): A (a compound having 10 or more and less than 20 is denoted as A)

Compound: CCO[C@@H]1C[C@H]2C(=O)NC3(CC(F)(F)C3)C(=O)N(C)[C@@H](C3CCCC3)C(=O)N(C)[C@H](C(=O)N3CCOCC3)CC(=O)N(C)[C@@H](COC)C(=O)N[C@@H]([C@@H](C)CC)C(=O)N(C)CC(=O)N(C)[C@H]3CCCCCN(C3=O)[C@@H](Cc3ccc(C(F)(F)F)cc3)C(=O)N(C)CC(=O)N[C@@H](CCc3cc(F)c(C(F)(F)F)c(F)c3)C(=O)N2C1 [PP0843]
- NRAS/KRAS (ratio of KD value with respect to NRAS to KD value with respect to KRAS) ([1]; KD ratio): B (a compound having 3 or more and less than 10 is denoted as B)
- HRAS/KRAS (ratio of KD value with respect to HRAS to KD value with respect to KRAS) ([2]; KD ratio): B (a compound having 3 or more and less than 10 is denoted as B)

Compound: CCCN1C(=O)CN(C)C(=O)[C@@H]2CCN2C(=O)[C@H]([C@@H](C)CC)NC(=O)[C@H](CC(C)C)N(C)C(=O)C[C@@H](C(=O)N2CCOCC2)N(C)C(=O)[C@H](C2CCCC2)N(C)C(=O)[C@](C)(C(C)C)NC(=O)[C@@H]2CCCN2C(=O)[C@H](CCc2cc(F)c(C(F)(F)F)c(F)c2)NC(=O)CN(C)C(=O)[C@@H]1Cc1ccc(C(F)(F)F)cc1 [PP0773] ([NMeL]I[Aze][Sar][NPrPhe(4-CF3)][Sar][hPhe(3,5-F2-4-CF3)]P[αMeV][NMeGly(cPent)][NMeD]-Morpholide; lactam N-11)
- NRAS/KRAS (ratio of KD value with respect to GDP-bound NRAS wild-type protein to KD value with respect to KRAS) [1]: B (a compound having 3 or more and less than 10 is denoted as B)
- HRAS/KRAS (ratio of KD value with respect to GDP-bound HRAS wild-type protein to KD value with respect to KRAS) [2]: B (a compound having 3 or more and less than 10 is denoted as B)

Compound: C#CC[C@H]1C(=O)N[C@@H]([C@@H](C)CC)C(=O)N(C)CC(=O)N(C)[C@H]2C/C=C\CCN(C2=O)[C@@H](Cc2ccc(C(F)(F)F)cc2)C(=O)N(C)CC(=O)N[C@@H](CCc2ccc(C(F)(F)F)c(Cl)c2)C(=O)N2CC3(CC3)C[C@H]2C(=O)NC2(CC(C)(C)C2)C(=O)N(C)[C@@H](C2CCCC2)C(=O)N(C)[C@H](C(=O)N(C)C)CC(=O)N1C [PP2980]
- NRAS/KRAS (ratio of KD value with respect to GDP-bound NRAS wild-type protein to KD value with respect to KRAS) ([1]; GDP-bound wild-type proteins): A (a compound having 10 or more and less than 20 is denoted as A)
- HRAS/KRAS (ratio of KD value with respect to GDP-bound HRAS wild-type protein to KD value with respect to KRAS) ([2]; GDP-bound wild-type proteins): B (a compound having 3 or more and less than 10 is denoted as B)

Compound: CCO[C@@H]1C[C@H]2C(=O)NC3(CC(C)(C)C3)C(=O)N(C)[C@@H](C(CC)CC)C(=O)N(C)[C@H](C(=O)N3CCCC3)CC(=O)N(C)[C@@H](COC)C(=O)N[C@@H]([C@@H](C)CC)C(=O)N(C)CC(=O)N(C)[C@H]3C/C=C\CCN(C3=O)[C@@H](Cc3ccc(C(F)(F)F)cc3)C(=O)N(C)CC(=O)N[C@@H](CCc3cc(F)c(C(F)(F)F)c(F)c3)C(=O)N2C1 [PP2123]
- NRAS/KRAS (ratio of KD value with respect to NRAS to KD value with respect to KRAS) [1]: A (a compound having 10 or more and less than 20 is denoted as A)
- HRAS/KRAS (ratio of KD value with respect to HRAS to KD value with respect to KRAS) [2]: A (a compound having 10 or more and less than 20 is denoted as A)

Compound: CCCO[C@@H]1C[C@H]2C(=O)NC3(CC(C)(C)C3)C(=O)N(C)[C@@H](C(CC)CC)C(=O)N(C)[C@H](C(=O)N(C)C)CC(=O)N(C)[C@H]3CCCCc4ccc(cc4)C[C@@H](C(=O)N(C)CC(=O)N[C@@H](CCc4ccc(C(F)(F)F)c(OC)c4)C(=O)N2C1)N1CC/C=C\C[C@@H](C1=O)N(C)C(=O)CN(C)C(=O)[C@H]([C@@H](C)CC)NC3=O [PP3038]
- NRAS/KRAS (ratio of KD value with respect to GDP-bound NRAS wild-type protein to KD value with respect to KRAS) ([1]; GDP-bound wild-type proteins): A (a compound having 10 or more and less than 20 is denoted as A)
- HRAS/KRAS (ratio of KD value with respect to GDP-bound HRAS wild-type protein to KD value with respect to KRAS) ([2]; GDP-bound wild-type proteins): A (a compound having 10 or more and less than 20 is denoted as A)
